Key:
[1] = Inhibition of HDAC by fluorescence assay
DU-145 [2] = assay: Anticancer activity against human DU145 cells after 72 hrs by MTT assay; type: functional
DU-145 [3] = assay: Ratio of MS-275 GI to compound GI for human DU145 cells; type: functional
A2780 = assay: Anticancer activity against human A2780 cells after 72 hrs by MTT assay; type: functional
[4] = Ratio of MS-275 IC50 to compound IC50 to for HDAC
HCT-116 = assay: Anticancer activity against human HCT116 cells after 72 hrs by MTT assay; type: functional
MDA-MB-231 = assay: Anticancer activity against human MDA-MB-231 cells after 72 hrs by MTT assay; type: functional

Compound	IC50 [1] [µM]	GI (DU-145 [2]) [µM]	GI (A2780) [µM]	further results
Nc1ccc(C(=O)NCC(=O)c2ccc(C(=O)Nc3ccccc3N)cc2)cc1	50.2	–	–	–
Nc1ccc(S(=O)(=O)NCC(=O)c2ccc(C(=O)Nc3ccccc3N)cc2)cc1	3.8	0.16	5.7	Ratio (DU-145 [3]): 50
Nc1ccccc1NC(=O)c1ccc(C(=O)CNC(=O)c2ccccc2)cc1	> 100	–	–	–
Nc1cc(C(=O)NCC(=O)c2ccc(C(=O)Nc3ccccc3N)cc2)ccn1	42.6	–	–	–

The remaining molecules from weak to strong by IC50 [1], led by results:

IC50 [1] [µM]	Compound	GI (DU-145 [2]) [µM]	GI (A2780) [µM]	further results
70.7	Nc1cccc(C(=O)NCC(=O)c2ccc(C(=O)Nc3ccccc3N)cc2)c1	–	–	–
30.2	Nc1ccccc1NC(=O)c1ccc(C(=O)CNC(=O)c2ccccn2)cc1	–	–	–
22.4	Cc1ccc(S(=O)(=O)NCC(=O)c2ccc(C(=O)Nc3ccccc3N)cc2)cc1	37.7	>100	Ratio IC50 [4]: 4; GI (HCT-116): 18.7 µM; GI (MDA-MB-231): 18.4 µM
13	Nc1ccccc1NC(=O)c1ccc(CNC(=O)OCc2cccnc2)cc1 [ENTINOSTAT]	7.9	5.7	GI (HCT-116): 3.1 µM; GI (MDA-MB-231): 2.8 µM
11.1	Nc1ccccc1NC(=O)c1ccc(C(=O)CNS(=O)(=O)c2cccnc2Cl)cc1	–	–	–
